According to patent US20220136033A1, “Kits and Assays for Determining Bacterial Cell Viability” (priority 2020, published 2022):
Several values for one entry are separate records, joined by “and”; a condition that tells them apart may be missing. Equal values may be shown once. Where a name gives a salt, the structure may show the parent alone.

Tests used:
[1] = system: bacteria; assay: Chemical treatments mildly affecting membrane permeability, EB staining; type: cell-based; details: 20 mM EDTA, 0.1-0.5% Triton X100, 0.12 M guanidine HCl or 0.1% SDS
From the text: All cell viability assays have limitations. The CFU method can overestimate the proportion of dead cells because any viable cells that are unable to divide, or dividing more slowly than wild-type, fail to form visible colonies and will be scored as dead. Membrane exclusion dyes, such as EB and propidium iodine, can underestimate the proportion of dead cells as recently dead cells may not have sufficiently compromised membranes to allow the dye to enter the cell. […] How other viability methods score dying cells also varies and it is often difficult to accurately quantitate, or distinguish, a dying cell population (4). For membrane-exclusion dyes, the concern is whether the dye enters cells with mildly compromised membranes that may be dying, but not dead.

[2] = system: Gram-negative and Gram-positive bacteria; assay: Bright-field microscopy viability staining with erythrosin B; type: cell-based
Description: Growth and treatments of bacteria. To prepare cells for viability studies, 3 mL overnight bacterial cultures were grown in Luria Broth. Fresh 5 mL cultures were inoculated from the overnight cultures and grown for 1 to 4 hours until reaching an OD600 of 0.4-1.1. Cells were harvested by centrifugation (15,000 g for 4 minutes) and then resuspended in phosphate buffered saline (PBS). A portion of these cells were kept at room temperature (untreated controls), while the remainder were transferred into separate microfuge tubes for different treatments. For heat shock treatment, microfuge tubes were placed at 70° C. for 30 minutes before returning to room temperature. For ethanol treatment, 100% ethanol (Decon Labs, Inc., PA, USA product number 2716) was added to cell suspensions to a final concentration of 30%. Cell mixtures were incubated at 37° C. for 30 minutes, centrifuged, and then the pellet was resuspended in PBS. For CaCl2 treatment, cells were centrifuged, and the pellet was resuspended in 1 mL of ice-cold 100 mM CaCl2 and left on ice for 45 minutes. After this initial incubation, the cells were centrifuged and resuspended in 1004 of 100 mM CaCl2.
Assaying bacterial viability. For bright-field microscopy assays, 104 of each cell suspension (untreated, heat-shocked, ethanol-treated and CaCl2-treated) was mixed with 104 of 0.08% erythrosin B and incubated for 5 minutes at room temperature. For CaCl2-treated cells, mixtures were placed at 42° C. for 60 seconds before returning to room temperature for the remainder of the incubation. 5 μl of the incubated dye:cell mixtures were taken to prepare wet mounts. Imaging was performed on a […] Olympus BX61 microscope using an UPlanSApo 100X/1.14 NA oil objective lens with an Olympus SC10 camera.

[3] = Concentration of filtered EB stock solution by A530 reference; type: physicochemical; details: 0.1% (w/v) preparation in 10 mM Tris pH 7.5, undissolved dye removed by 0.22 μm filter
Description: Erythrosin B (EB, Sigma, Mo., USA 200964-5G) was prepared by dissolving powder in 10 mM Tris pH 7.5. Published values of the solubility of EB in aqueous solutions vary and may result from different preparations of the dye and from which supplier it is purchased. A small amount of undissolved dye was present when preparing a 0.1% (w/v) solution. This stock solution was filtered through a 0.22 μm filter to remove undissolved dye. To determine the concentration of this stock solution a fresh, dilute EB solution was prepared in which all dye fully dissolved after 10 minutes of stirring. This dilute solution was serially diluted and A530 readings (the wavelength of maximal absorbance for EB) were collected generating a reference relating EB dye concentration to A530. The filtered, stock solution of EB was then serially diluted, and absorbance values of the dilutions were compared to the reference absorbance values for the dilute solution. The stock EB concentration was determined to be 0.08% and is used throughout this work.

[4] = Excitation and emission spectra comparison; type: physicochemical; details: approx.
From the text: FIG. 11. The excitation and emission spectra for erythrosin B and propidium iodide, another cell viability dye that works by membrane exclusion, were compared. Erythrosin B has a narrow range for both excitation (approx. 480-550 nm) and emission (approx. 540-610 nm) compared to propidium iodide (excitation of approx. 300-350 nm and 475-575 nnm; emission of approx. 570-750 nm).
Many experiments involving fluorescent molecules, including viability assays, try to multiplex (use more than one fluorescent molecule at a time (e.g., FIG. 12)). A key limitation to the number of different fluorescent molecules that can be simultaneously used is the width of the region(s) of wavelengths for excitation and for emission. By having narrow ranges for both excitation and emission this allows erythrosin B to be more flexible than propidium iodide and potentially be paired with a wider variety of other fluorescent probes.

[5] = system: Staphylococcus epidermidis; assay: Flow cytometry viability comparison, propidium iodide vs EB-based kit; type: cell-based
Description: (§1) Determining bacterial cell viability by a different membrane exclusion dye (propidium iodide, PI) is not reliable for certain bacteria species and under certain growth conditions (10,11). Using an EB dye and adsorbent resin binding step (hereafter referred to as EB-based Kit), it is possible to reliably determine cell viability in these bacteria species (FIG. 9A-L). In these experiments, overnight cultures of Streptococcus mutans (FIG. 9A-F) and Staphylococcus epidermidis (FIG. 9G-L) were grown in Luria Broth. A portion of each culture was killed by treating with ethanol (50% ethanol, for 30 minutes at 30° C.). Overnight cells and ethanol-treated cells were centrifuged (10,000 g for 6 minutes) and then resuspended in phosphate buffered saline. Both cell suspensions were then sonicated to break apart any clusters (10% for 10 seconds). An approximately equal amount of the untreated, living overnight cells and the ethanol-treated, killed cells were mixed to generate a mixed population sample. 100 microliters of each sample (overnight culture, live/dead mixture, and killed cells) were incubated with 100 microliters of an EB-dye solution for 5 minutes. After incubation, 100 microliters of the adsorbent solution was added and gently agitated for 5 minutes on a vortexer. Following agitation, the tubes were left for 5 minutes to allow the adsorbent to settle and 200 microliters of the liquid solution above the adsorbent was transferred to a new tube. These samples were brought up to 1 mL in phosphate buffered saline. For propidium iodide staining, 40 microliters of the sonicated samples (overnight culture, live/dead mixture, and killed cells) were transferred to a fresh tube and brought up to 1 mL in phosphate buffered saline. 1 microliter of propidium iodide was added to each tube and incubated for 15 minutes before analyzing all samples by flow cytometry (FIGS. 9A-F for Streptococcus mutans and FIGS. 9G-L for Staphylococcus epidermidis).

[6] = system: Streptococcus mutans; assay: as above; type: cell-based; details: >90% alive by CFU, 30,000 events
Description: as §1

Compound	increase in dye-positive live cells after chemical treatment [1]	emission range [4]	excitation range [4]	further results
O=C(O)CN(CCN(CC(=O)O)CC(=O)O)CC(=O)O [EDTA]	did not result in an observable increase in dye-positive live cells			
N=C(N)N [guanidine HCl]	did not result in an observable increase in dye-positive live cells			
O.O=C([O-])c1ccccc1-c1c2cc(I)c(=O)c(I)c-2oc2c(I)c([O-])c(I)cc12.[Na+].[Na+] [EB, Erythrosin B]		540-610 nm	480-550 nm	dye-positive cells after CaCl2 treatment ([2]; CaCl2-treated cells): not all treated cells were dye positive; time until clear differences between dye-negative and dye-positive cells were visible ([2]; dye incubation, bright-field): ≤ 5 min; dye-positive cells after heat shock or ethanol treatment ([2]; heat shocked and ethanol-treated organisms): virtually all treated cells were dye-positive; healthy cells dye-positive by bright-field microscopy when incubated with EB ([2]; untreated cells, all species examined): < 3%; stock EB concentration [3]: 0.08%
CCCCCCCCCCCCOS(=O)(=O)[O-].[Na+] [SDS]	did not result in an observable increase in dye-positive live cells			
Triton X100	did not result in an observable increase in dye-positive live cells			
CC[N+](C)(CC)CCC[n+]1c(-c2ccccc2)c2cc(N)ccc2c2ccc(N)cc21.[I-].[I-] [PI, propidium iodide]		570-750 nm	300-350 nm and 475-575 nm	cells dead, Live/Dead Mixture sample ([5]; near-equal mixture of live and ethanol-killed cells): 95%; cells dye-positive (dead), overnight culture ([5]; overnight culture, >90% alive by CFU, 30,000 events): ~61%; cells dye-positive (dead), overnight culture [6]: virtually all cells
